Experimental data taken from PubChem BioAssay (NCI).
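Each compound was tested at five concentrations against cells in 96-well plates for 48 hours. Definition used: TGI = concentration required for complete inhibition of growth.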

Experiments:
Assay in all cases: NCI tumour cell line growth inhibition, 48 h
NCI/ADR-RES ovarian = system: NCI/ADR-RES ovarian
MDA-MB-435 = system: MDA-MB-435
NCI-H460 lung = system: NCI-H460 lung
OVCAR-3 ovarian = system: OVCAR-3 ovarian
MCF7 breast = system: MCF7 breast
HCT-15 colon = system: HCT-15 colon
BT-549 breast = system: BT-549 breast
SNB-75 CNS = system: SNB-75 CNS
T-47D breast = system: T-47D breast
SF-295 CNS = system: SF-295 CNS
ACHN renal = system: ACHN renal
RXF 393 renal = system: RXF 393 renal
HOP-62 NSCLC = system: HOP-62 NSCLC
MOLT-4 leukemia = system: MOLT-4 leukemia
NCI-H226 lung = system: NCI-H226 lung
MDA-MB-231 breast = system: MDA-MB-231 breast
TK-10 renal = system: TK-10 renal
IGROV1 ovarian = system: IGROV1 ovarian

Row | Structure (SMILES) | TGI (NCI/ADR-RES ovarian) [µM] | TGI (MDA-MB-435) [µM] | TGI (NCI-H460 lung) [µM] | TGI (OVCAR-3 ovarian) [µM] | TGI (MCF7 breast) [µM] | TGI (HCT-15 colon) [µM] | TGI (BT-549 breast) [µM] | TGI (SNB-75 CNS) [µM] | TGI (T-47D breast) [µM] | TGI (SF-295 CNS) [µM] | TGI (ACHN renal) [µM] | TGI (RXF 393 renal) [µM] | TGI (HOP-62 NSCLC) [µM] | TGI (MOLT-4 leukemia) [µM] | TGI (NCI-H226 lung) [µM] | TGI (MDA-MB-231 breast) [µM] | TGI (TK-10 renal) [µM] | TGI (IGROV1 ovarian) [µM]
1 | Cc1ccc(Nc2sc(C)cc2C#N)c([N+](=O)[O-])c1 | > 100 | > 100 | > 100 | > 100 | > 100 | > 100 | > 100 | > 100 | > 100 | > 100 | > 100 | > 100 | > 100 | > 100 | > 100 | > 100 | – | –
2 | CC1=C(C(=O)NCC(C)O)CC(C(=O)NCC(C)O)=C(C)N1 (stereo unspecified) | > 100 | > 100 | > 100 | > 100 | > 100 | > 100 | > 100 | > 100 | > 100 | > 100 | > 100 | > 100 | > 100 | > 100 | > 100 | > 100 | > 100 | > 100
3 | O=C(N/N=C\c1ccc([N+](=O)[O-])cc1)Nc1cccc2ccccc12 | > 100 | > 100 | > 51.9 | > 100 | > 80.9 | > 100 | 23.4 | > 28.8 | > 47.6 | 22.6 | > 100 | 34.5 | 22.5 | > 100 | 61 | 33.7 | 63.6 | > 100
4 | COc1cc(C2SCC(=O)N2c2ccc(Cl)cc2)cc(I)c1O (stereo unspecified) | > 100 | > 100 | > 100 | > 100 | > 100 | > 100 | > 100 | > 100 | > 100 | > 100 | > 100 | > 100 | > 100 | > 100 | > 100 | > 100 | > 100 | > 100
5 | COc1cc2c(cc1OC)C(Cc1ccccc1CCCl)=NCC2 | > 100 | > 100 | > 100 | > 100 | > 100 | > 100 | > 100 | > 100 | > 100 | > 100 | > 100 | > 100 | > 100 | > 100 | > 100 | > 100 | > 100 | > 100
6 | OCCN=C1c2ccccc2C2C(c3ccccc31)C1c3ccccc3C(=NCCO)c3ccccc3C21 (stereo unspecified) | 72.6 | 40.9 | 58.3 | 40.3 | 60 | 63.9 | 52.3 | 65.9 | 97 | 30.6 | 76.9 | 51.8 | 39.4 | 27.6 | 17.8 | 31.4 | 79.5 | 98.5
7 | N=c1oc2ccc(Cl)cc2cc1C(=O)NCc1ccccc1 | > 100 | > 100 | > 100 | > 100 | > 100 | > 100 | > 100 | > 95 | > 100 | > 100 | > 100 | > 100 | > 100 | > 56.7 | > 100 | > 100 | > 100 | > 100
8 | CCCC#CC(O)(C(=O)OC1CCN(C)CC1)C1CCCCC1 (stereo unspecified) | > 100 | > 100 | > 100 | > 100 | > 100 | > 100 | > 100 | > 100 | > 100 | > 100 | > 100 | > 100 | > 100 | > 100 | > 100 | > 100 | > 100 | > 100
9 | NCCCc1c(-c2ccccc2)nc(N)[nH]c1=O | > 100 | > 100 | > 100 | > 100 | > 100 | > 100 | > 100 | > 100 | > 100 | > 100 | > 100 | > 100 | > 100 | > 100 | > 100 | > 100 | > 100 | > 100
10 | CC1=C(C(=O)Nc2ccccc2)C(c2ccc(C)o2)C(C#N)=C(SCc2ccccc2)N1 (stereo unspecified) | > 100 | 24.6 | > 100 | > 100 | > 100 | > 100 | > 100 | > 100 | > 100 | > 100 | > 100 | > 100 | > 100 | > 100 | > 100 | > 100 | > 100 | > 100
11 | Cc1ccc2cccc3c2c1CC1(C3=O)S(=O)(=O)OCCOS1(=O)=O | > 100 | > 100 | > 100 | > 100 | > 100 | > 100 | > 100 | > 100 | > 100 | > 100 | > 100 | > 100 | > 100 | > 100 | > 100 | > 100 | > 100 | > 100
12 | CCOC(=O)c1cc(=O)oc2c1N(C)c1ncccc1N2 | > 100 | > 100 | > 100 | > 100 | > 100 | > 100 | > 100 | > 100 | > 100 | > 100 | > 100 | > 100 | > 100 | > 100 | > 100 | > 100 | > 100 | –
13 | COC(OC)(c1ccccc1)C(I)I | > 59.7 | 18 | 37.7 | 28.7 | 47.4 | 18.5 | 23.1 | 26.3 | 63.1 | > 52.7 | 31.9 | 10.4 | > 58.3 | > 49.8 | 42.4 | 36.4 | 26.2 | 27.4
